Earlier results as cited in patent publication US9386793B2, “Compositions and methods for treating obesity and related disorders by characterizing and restoring mammalian bacterial microbiota” (New York University, priority 2010, dated 2016).

Experiments:
Oscillibacter = tested on: Oscillibacter; design: key: + facilitates growth; w weak growth promotion; +/− growth variable dependent on strain; − no growth effect; details: substrate for fermentation
[1] = tested on: Coprobacillus, Sporacetigenium, Holdemania, or Clostridium cocleatum; details: but not of Johnsonella and Oscillibacter
Sporacetegenium = tested on: Sporacetegenium; design: key: + facilitates growth; w weak growth promotion; +/− growth variable dependent on strain; − no growth effect; details: substrate for fermentation
Clostridium cocleatum = tested on: Clostridium cocleatum; design: key: + facilitates growth; w weak growth promotion; +/− growth variable dependent on strain; − no growth effect; details: substrate for fermentation
Holdemania = tested on: Holdemania; design: key: + facilitates growth; w weak growth promotion; +/− growth variable dependent on strain; − no growth effect; details: substrate for fermentation
Johnsonella = tested on: Johnsonella; design: key: + facilitates growth; w weak growth promotion; +/− growth variable dependent on strain; − no growth effect; details: substrate for fermentation
Coprobacillus = tested on: Coprobacillus; design: key: + facilitates growth; w weak growth promotion; +/− growth variable dependent on strain; − no growth effect; details: substrate for fermentation

O=C[C@H](O)[C@@H](O)[C@@H](O)CO [L-arabinose]
growth of Oscillibacter (Oscillibacter): +

OC[C@H]1O[C@H](OCC2O[C@@H](O)[C@H](O)[C@@H](O)[C@@H]2O)[C@H](O)[C@@H](O)[C@H]1O (stereo partly shown) [Mellibiose]
growth and metabolic activity of genera (as follows from Table 1) [1]: stimulate growth and metabolic activity of two or more genera
growth of Sporacetegenium (Sporacetegenium): w
growth of Clostridium cocleatum (Clostridium cocleatum): +
growth of Oscillibacter (Oscillibacter): −
growth of Holdemania (Holdemania): w
growth of Johnsonella (Johnsonella): −

O=C[C@H](O)[C@@H](O)[C@@H](O)[C@H](O)CO [Galactose]
growth and metabolic activity of genera (as follows from Table 1) [1]: stimulate growth and metabolic activity of two or more genera
growth of Sporacetegenium (Sporacetegenium): w
growth of Clostridium cocleatum (Clostridium cocleatum): +
growth of Coprobacillus (Coprobacillus): +
growth of Oscillibacter (Oscillibacter): −

OC[C@H]1O[C@H](O[C@H]2O[C@H](CO)[C@@H](O)[C@H](O)[C@H]2O)[C@H](O)[C@@H](O)[C@@H]1O [Trehalose]
growth and metabolic activity of genera (as follows from Table 1) [1]: stimulate growth and metabolic activity of two or more genera
growth of Sporacetegenium (Sporacetegenium): w
growth of Clostridium cocleatum (Clostridium cocleatum): −
growth of Coprobacillus (Coprobacillus): +
growth of Oscillibacter (Oscillibacter): −
growth of Holdemania (Holdemania): w
growth of Johnsonella (Johnsonella): −

O=C(CO)[C@@H](O)[C@H](O)[C@H](O)CO [Fructose]
growth and metabolic activity of genera (as follows from Table 1) [1]: stimulate growth and metabolic activity of two or more genera
growth of Sporacetegenium (Sporacetegenium): +
growth of Clostridium cocleatum (Clostridium cocleatum): +
growth of Coprobacillus (Coprobacillus): +
growth of Oscillibacter (Oscillibacter): −
growth of Holdemania (Holdemania): +
growth of Johnsonella (Johnsonella): −

Inulin
growth of Clostridium cocleatum (Clostridium cocleatum): +

C[C@H](O)[C@H](O)[C@@H](O)[C@@H](O)C=O [Rhamnose]
growth of Sporacetegenium (Sporacetegenium): w
growth of Clostridium cocleatum (Clostridium cocleatum): −
growth of Coprobacillus (Coprobacillus): −
growth of Oscillibacter (Oscillibacter): −
growth of Holdemania (Holdemania): w
growth of Johnsonella (Johnsonella): −

O=C[C@H](O)[C@@H](O)[C@H](O)CO [Xylose]
growth of Sporacetegenium (Sporacetegenium): +
growth of Clostridium cocleatum (Clostridium cocleatum): −
growth of Coprobacillus (Coprobacillus): −
growth of Oscillibacter (Oscillibacter): +
growth of Holdemania (Holdemania): w
growth of Johnsonella (Johnsonella): −

O=C[C@@H](O)[C@H](O)[C@H](O)CO [Arabinose]
growth of Sporacetegenium (Sporacetegenium): +
growth of Clostridium cocleatum (Clostridium cocleatum): −
growth of Coprobacillus (Coprobacillus): −
growth of Oscillibacter (Oscillibacter): +/−^a
growth of Holdemania (Holdemania): w
growth of Johnsonella (Johnsonella): −

O=C[C@@H](O)[C@H](O)[C@H](O)CO [D-arabinose]
growth of Oscillibacter (Oscillibacter): −

OC[C@H]1O[C@@](CO)(O[C@H]2O[C@H](CO)[C@@H](O)[C@H](O)[C@H]2O)[C@@H](O)[C@@H]1O [Sucrose]
growth and metabolic activity of genera (as follows from Table 1) [1]: stimulate growth and metabolic activity of two or more genera
growth of Sporacetegenium (Sporacetegenium): w
growth of Clostridium cocleatum (Clostridium cocleatum): +
growth of Coprobacillus (Coprobacillus): +
growth of Oscillibacter (Oscillibacter): −
growth of Holdemania (Holdemania): +
growth of Johnsonella (Johnsonella): −

OC[C@H]1O[C@H](OC[C@H]2O[C@H](O[C@]3(CO)O[C@H](CO)[C@@H](O)[C@@H]3O)[C@H](O)[C@@H](O)[C@@H]2O)[C@H](O)[C@@H](O)[C@H]1O [Raffinose]
growth and metabolic activity of genera (as follows from Table 1) [1]: stimulate growth and metabolic activity of two or more genera
growth of Sporacetegenium (Sporacetegenium): w
growth of Clostridium cocleatum (Clostridium cocleatum): +
growth of Coprobacillus (Coprobacillus): −
growth of Oscillibacter (Oscillibacter): −
growth of Holdemania (Holdemania): w
growth of Johnsonella (Johnsonella): −

OC[C@H]1O[C@@H](O[C@H]2[C@H](O)[C@@H](O)C(O)O[C@@H]2CO)[C@H](O)[C@@H](O)[C@H]1O (stereo partly shown) [Lactose]
growth and metabolic activity of genera (as follows from Table 1) [1]: stimulate growth and metabolic activity of two or more genera
growth of Sporacetegenium (Sporacetegenium): w
growth of Clostridium cocleatum (Clostridium cocleatum): +
growth of Coprobacillus (Coprobacillus): +
growth of Oscillibacter (Oscillibacter): −
growth of Holdemania (Holdemania): +
growth of Johnsonella (Johnsonella): −

O=c1ccc2cc(O[C@@H]3O[C@H](CO)[C@@H](O)[C@H](O)[C@H]3O)c(O)cc2o1 [Esculin]
growth of Coprobacillus (Coprobacillus): −
growth of Holdemania (Holdemania): +
growth of Johnsonella (Johnsonella): −

O=C[C@H](O)[C@H](O)[C@H](O)CO [Ribose]
growth of Sporacetegenium (Sporacetegenium): +/−
growth of Clostridium cocleatum (Clostridium cocleatum): −
growth of Coprobacillus (Coprobacillus): −
growth of Oscillibacter (Oscillibacter): +
growth of Holdemania (Holdemania): w
growth of Johnsonella (Johnsonella): −

OC[C@H]1O[C@H](O[C@H]2[C@H](O)[C@@H](O)[C@H](O)O[C@@H]2CO)[C@H](O)[C@@H](O)[C@@H]1O [Maltose]
growth and metabolic activity of genera (as follows from Table 1) [1]: stimulate growth and metabolic activity of two or more genera
growth of Sporacetegenium (Sporacetegenium): +
growth of Clostridium cocleatum (Clostridium cocleatum): +
growth of Coprobacillus (Coprobacillus): +
growth of Oscillibacter (Oscillibacter): −
growth of Holdemania (Holdemania): +
growth of Johnsonella (Johnsonella): −

O=C[C@H](O)[C@@H](O)[C@H](O[C@@H]1O[C@H](CO)[C@@H](O)[C@H](O)[C@H]1O)[C@H](O)CO [Cellobiose]
growth and metabolic activity of genera (as follows from Table 1) [1]: stimulate growth and metabolic activity of two or more genera
growth of Sporacetegenium (Sporacetegenium): w
growth of Clostridium cocleatum (Clostridium cocleatum): +
growth of Coprobacillus (Coprobacillus): +
growth of Oscillibacter (Oscillibacter): −
growth of Holdemania (Holdemania): w
growth of Johnsonella (Johnsonella): −

OCc1ccccc1O[C@@H]1O[C@H](CO)[C@@H](O)[C@H](O)[C@H]1O [Salicin]
growth and metabolic activity of genera (as follows from Table 1) [1]: stimulate growth and metabolic activity of two or more genera
growth of Sporacetegenium (Sporacetegenium): −
growth of Clostridium cocleatum (Clostridium cocleatum): w
growth of Coprobacillus (Coprobacillus): +
growth of Oscillibacter (Oscillibacter): −
growth of Holdemania (Holdemania): +
growth of Johnsonella (Johnsonella): −
